The results in this text go back to US20230063462A1, “SULFONIMIDAMIDE COMPOUNDS AND COMPOSITIONS FOR TREATING CONDITIONS ASSOCIATED WITH NLRP ACTIVITY” (NOVARTIS AG, priority 2019, published 2023).

This assay relates to THP-1 cells. Kind of assay: hTHP-1 assay: gramicidin-stimulated IL-1β detection in PMA-treated THP-1 cells. The assay is classed as cell-based, human. On the procedure: The following protocol is suitable for testing the activity of the compounds disclosed herein.
1. Experimental procedure • 1.1 Cell Culture • 1) Culture THP-1 cells in the complete RPMI-1640 medium with 10% FBS at 37° C., 5% CO2. • 2) Passage the cells every 3 days by inoculating 3×10^5 cells per ml. • 1.2 Compound Preparation • Prepare the 3-fold serial dilution of the compounds with DMSO in a 384-well LDV Microplate using TECAN EVO system to generate the compound source plate with 10 concentrations. […] HC: 100 μM CRID3 (MCC950)+5 μM gramicidin LC: 5 μM Gramicidin. • 1.5 IL-1β Detection • 1) Homogenize the 5× diluent #5 with a vortex and add 1 volume of stock solution in 4 volumes of distilled water. • 2) Thaw 20× stock solution of anti-IL1β-Cryptate-antibody and anti-IL1β XL-antibody. Dilute these two antibodies to 1× with detection buffer #3. • 3) Pre-mix the two ready-to-use antibody solutions just prior to use. • 4) Dispense 4 ul of pre-mixed Anti-IL1β antibodies working solution into all wells. • 5) Seal the plate and incubate overnight at 4° C. • 6) Read the cell plate using EnVison and plot Readout vs. the test compound concentration to calculate the IC50.
2. Data Analysis: • 1. IC50 of compounds can be calculated using the following formulas • Formula for IC50
% inhibition=100−100×[HCave-Readout/(HCave−LCave)] • 2. Fit the normalized data in a dose-response manner using XLfit, and calculate the compound concentration.

Setting [1] is: Table B1, 2% fetal bovine serum, class symbol, read-out: hTHP-1 IC50.
The mark [2] stands for this setting: Table B1, 2% fetal bovine serum, numeric value, read-out: hTHP-1 IC50.
Where [3] appears, read: Homo sapiens, THP-1, Table B1, 2% fetal bovine serum, class symbol, read-out: hTHP-1 IC50.
The mark [4] stands for this setting: Homo sapiens, THP-1, Table B1, 2% fetal bovine serum, numeric value, read-out: hTHP-1 IC50.
Setting [5] is: Homo sapiens, THP-1, Table B2, 10% FBS, class symbol, read-out: hTHP-1 IC50 in 10% FBS.
[6] abbreviates: Homo sapiens, THP-1, Table B2, 10% FBS, numeric value, read-out: hTHP-1 IC50 in 10% FBS.

Like-named read-outs stand apart in the source and are kept apart here.

The term IC50 denotes the concentration that inhibits the measured activity by half. Take `CC(C)(O)c1ncc(S(=O)(=NC(=O)Nc2c3c(nc4c2CCC4(C)C)CCC3)NC#N)s1` (single isomer, unassigned) [Example 4, (S) or (R)-N-cyano-N′-((3,3-dimethyl-1,2,3,5,6,7-hexahydrodicyclopenta[b,e]pyridin-8-yl)carbamoyl)-2-(2-hydroxypropan-2-yl)thiazole-5-sulfonimidamide]: the IC50 reads like this: under setting [1], 40 to 200 nM; under setting [2], 59.7 nM.
For `CC(C)c1cc(C#N)c(F)c(C(C)C)c1NC(=O)N=S(=O)(NC#N)c1cnc(C(C)(C)O)s1` (single isomer, unassigned) [Example 20, (S) or (R)-N-cyano-N′-((4-cyano-3-fluoro-2,6-diisopropylphenyl)carbamoyl)-2-(2-hydroxypropan-2-yl)thiazole-5-sulfonimidamide] the same measures were 1000 to 5000 nM and 2750 nM.
Regarding `CC(C)(O)c1cccc(S(=O)(=NC(=O)Nc2c3c(cc4c2CCC4)CCC3)NC#N)c1` (single isomer, unassigned) [Example 31, (S) or (R)-N-cyano-N′-((1,2,3,5,6,7-hexahydro-s-indacen-4-yl)carbamoyl)-3-(2-hydroxypropan-2-yl)benzenesulfonimidamide], the IC50 is, setting by setting: under setting [1], 8 to 40 nM; under setting [2], 33.8 nM.
Turning to `CC(C)(O)c1ncc(S(=O)(=NC(=O)Nc2c3c(cc4c2CCC4)CCC3)NC#N)s1` (stereo not drawn) [Example 3, N-cyano-N′-((1,2,3,5,6,7-hexahydro-s-indacen-4-yl)carbamoyl)-2-(2-hydroxypropan-2-yl)thiazole-5-sulfonimidamide], the 50% inhibitory concentration (IC50) runs as follows: under setting [3], 40 to 200 nM; under setting [4], 34 nM.
In the case of `NS(=O)(=NC(=O)Nc1c2c(nc(C(F)(F)F)c1C1CC1)CCC2)c1ccn(C2CC2)n1` (stereo not drawn) [Example 873, 1-Cyclopropyl-N′-((3-cyclopropyl-2-(trifluoromethyl)-6,7-dihydro-5H-cyclopenta[b]pyridin-4-yl)carbamoyl)-1H-pyrazole-3-sulfonimidamide], the IC50 is 40 to 200 nM under setting [5] and 128 nM under setting [6].
Regarding `CC(C)(O)c1ncc(S(=O)(=NC(=O)Nc2c3c(cc4c2CC4)CCC3)NC#N)s1` (single isomer, unassigned) [Example 25, (S) or (R)-N-cyano-2-(2-hydroxypropan-2-yl)-N′-((2,4,5,6-tetrahydro-1H-cyclobuta[f]inden-3-yl)carbamoyl)thiazole-5-sulfonimidamide], the IC50 runs as follows: under setting [3], 8 to 40 nM; under setting [2], 27.5 nM.
For the molecule `CC(C)(O)c1csc(S(=O)(=NC(=O)Nc2c3c(cc4c2CCC4)CCC3)NC#N)c1` (single isomer, unassigned) [Example 1, (S) or (R)-N-cyano-N′-(1,2,3,5,6,7-hexahydro-s-indacen-4-ylcarbamoyl)-4-(2-hydroxypropan-2-yl)thiophene-2-sulfonimidamide], the IC50 was 40 to 200 nM under setting [1] and 53.5 nM under setting [2].
In the same order, the values of `CC(C)(O)c1coc(S(=O)(=NC(=O)Nc2c3c(cc4c2CCC4)CCC3)NC#N)c1` (single isomer, unassigned) [Example 30, (S) or (R)-N-cyano-N′-((1,2,3,5,6,7-hexahydro-s-indacen-4-yl)carbamoyl)-4-(2-hydroxypropan-2-yl)furan-2-sulfonimidamide] are 8 to 40 nM and 16.7 nM.
As for `Cc1oc(S(=O)(=NC(=O)Nc2c(C(C)C)cc(F)cc2C(C)C)NC#N)cc1C(C)(C)O` (single isomer, unassigned) [Example 11, (R) or (S)-N-cyano-N′-((4-fluoro-2,6-diisopropylphenyl)carbamoyl)-4-(2-hydroxypropan-2-yl)-5-methylfuran-2-sulfonimidamide], the IC50 reads like this: under setting [1], 40 to 200 nM; under setting [2], 90.6 nM.
Turning to `CC(C)(O)c1ccc(CS(=O)(=NC(=O)Nc2c3c(cc4c2CCC4)CCC3)NC#N)cc1` (single isomer, unassigned) [Example 8, (S) or (R)-N-cyano-N′-((1,2,3,5,6,7-hexahydro-s-indacen-4-yl)carbamoyl)-1-(4-(2-hydroxypropan-2-yl)phenyl)methanesulfonimidamide], the IC50 reads like this: under setting [3], 40 to 200 nM; under setting [2], 42.2 nM.
Regarding `CC1CCc2c1nc1c(c2NC(=O)N=S(=O)(NC#N)c2cc(C(C)(C)O)cs2)CCC1` (single isomer, unassigned) [Example 19, (S,R) or (S,S)-N-cyano-4-(2-hydroxypropan-2-yl)-N′-(((R)-3-methyl-1,2,3,5,6,7-hexahydrodicyclopenta[b,e]pyridin-8-yl)carbamoyl)thiophene-2-sulfonimidamide], the IC50 under setting [1] was in the range of 200 to 1000 nM and the IC50 under setting [2] was found to be 705 nM.
As to `CC(C)(O)c1csc(S(=O)(=NC(=O)Nc2c3c(cc4c2CC4)CCC3)NC#N)c1` (single isomer, unassigned) [Example 6, (R) or (S)-N-cyano-4-(2-hydroxypropan-2-yl)-N′-((2,4,5,6-tetrahydro-1H-cyclobuta[f]inden-3-yl)carbamoyl)thiophene-2-sulfonimidamide], the IC50 by setting is: under setting [1], 40 to 200 nM; under setting [2], 71.7 nM.
With `CC(C)(O)c1coc(S(=O)(=NC(=O)Nc2c3c(cc4c2CCC4)CCC3)NC#N)c1` (single isomer, unassigned) [Example 29, (R) or (S)-N-cyano-N′-(1,2,3,5,6,7-hexahydro-s-indacen-4-ylcarbamoyl)-4-(2-hydroxypropan-2-yl)furan-2-sulfonimidamide], the IC50 by setting is: under setting [1], 40 to 200 nM; under setting [2], 58.2 nM.
For `CN(C)Cc1ccc(S(=O)(=NC(=O)Nc2c3c(cc4c2CCC4)CCC3)NC#N)c(F)c1` (single isomer, unassigned) [Example 15, (R) or (S)-N-cyano-4-((dimethylamino)methyl)-2-fluoro-N′-((1,2,3,5,6,7-hexahydro-s-indacen-4-yl)carbamoyl)benzenesulfonimidamide] the same measures were 200 to 1000 nM and 209 nM.
As for `CC(C)(O)c1ncc(S(=O)(=NC(=O)Nc2c3c(cc4c2CC4)CC3)NC#N)s1` (single isomer, unassigned) [Example 23, (S) or (R)-N-cyano-2-(2-hydroxypropan-2-yl)-N′-(tricyclo[6.2.0.03,6]deca-1,3(6),7-trien-2-ylcarbamoyl)thiazole-5-sulfonimidamide], the IC50 is 8 to 40 nM under setting [3] and 38.9 nM under setting [2].
In the case of `CC(C)(O)c1nc(CO)c([S@](=O)(=NC(=O)Nc2c3c(nc4c2CCC4(C)C)CCC3)NC#N)s1` [Example 12, (S) or-N-cyano-N′-((3,3-dimethyl-1,2,3,5,6,7-hexahydrodicyclopenta[b,e]pyridin-8-yl)carbamoyl)-4-(hydroxymethyl)-2-(2-hydroxypropan-2-yl)thiazole-5-sulfonimidamide], the IC50 by setting is: under setting [3], 40 to 200 nM; under setting [4], 419 nM.
With `CC(C)(O)c1ccc(CS(=O)(=NC(=O)Nc2c3c(cc4c2CCC4)CCC3)NC#N)cc1` (single isomer, unassigned) [Example 9, (R) or (S)-N-cyano-N′-((1,2,3,5,6,7-hexahydro-s-indacen-4-yl)carbamoyl)-1-(4-(2-hydroxypropan-2-yl)phenyl)methanesulfonimidamide], the IC50 under setting [1] is 40 to 200 nM and the IC50 under setting [2] is 104 nM.
For `CC(C)(O)c1ncc(S(=O)(=NC(=O)Nc2c3c(cc4c2CC4)CC3)NC#N)s1` (single isomer, unassigned) [Example 24, (R) or (S)-N-cyano-2-(2-hydroxypropan-2-yl)-N′-(tricyclo[6.2.0.03,6]deca-1,3(6),7-trien-2-ylcarbamoyl)thiazole-5-sulfonimidamide] the same measures were 8 to 40 nM and 9.7 nM.
On to `NS(=O)(=NC(=O)Nc1c2c(nc(C3CC3)c1C1CC1)CCC2)c1ccn(C2CC2)n1` (stereo not drawn) [Example 877, 1-Cyclopropyl-N′-((2,3-dicyclopropyl-6,7-dihydro-5H-cyclopenta[b]pyridin-4-yl)carbamoyl)-1H-pyrazole-3-sulfonimidamide], for which the IC50 under setting [5] lay within 40 to 200 nM and the IC50 under setting [6] was determined as 154 nM.
For the molecule `CC(C)(O)c1ncc(S(=O)(=NC(=O)Nc2c3c(nc4c2CCC4(C)C)CCC3)NC#N)s1` (single isomer, unassigned) [Example 5, (R) or (S)-N-cyano-N′-((3,3-dimethyl-1,2,3,5,6,7-hexahydrodicyclopenta[b,e]pyridin-8-yl)carbamoyl)-2-(2-hydroxypropan-2-yl)thiazole-5-sulfonimidamide], the IC50 is, setting by setting: under setting [1], 200 to 1000 nM; under setting [2], 236 nM.
For `CC(C)(O)c1cccc(S(=O)(=NC(=O)Nc2c3c(cc4c2CCC4)CCC3)NC#N)c1` (single isomer, unassigned) [Example 32, (R) or (S)-N-cyano-N′-((1,2,3,5,6,7-hexahydro-s-indacen-4-yl)carbamoyl)-3-(2-hydroxypropan-2-yl)benzenesulfonimidamide] the same measures were 40 to 200 nM and 79.5 nM.
